For experiment [1], the system named is IFNγ-secreting cells in the spleen. Briefly: ELIspot method (IFNγ spots) after immunization of mice. It counts as in vivo, C57BL/6N mice. Particulars: antigen OVA peptide; DLPC, deoxycholic acid (160 nmol), MPL content 0.227; 2×10^6 cells/well; FIG. 2. As for the experimental part: Administration (100 μL/head) was performed by subcutaneous injection at one position on the back under anesthesia. The dose of the amphipathic substance was 100 nmol/head; the dose of the pH-sensitive compound was 10 to 640 nmol/head; MPL content was 0.0227 to 22.7 nmol/head; and the amount of the antigen was 3.2 to 400 μg/head. For evaluation of cell-mediated immunity, administration was performed once and the assay was performed seven days after administration. For evaluation of humoral immunity, administration was performed twice. The second administration was performed 14 days after the first administration, and assay was performed seven days after the second administration.
The mice were sacrificed on the seventh day after the last administration and had its spleen harvested. […] The number of cells was counted. […]
The ELIspot method was practiced by using the Mouse IFNγ ELISPOT Set. One day before cell inoculation, the 96-well ELIspot plate was allowed to adsorb the detection antibody attached to the kit, so that the plate was made ready for use. […]
Samples used for comparison include a solution of the peptide alone, a dispersion of the pH-sensitive carrier (DLPC-deoxycholic acid) and the peptide, and a solution of incomplete Freund's adjuvant (IFA) and peptide. […] The number of IFNγ-secreting cells in the spleen was counted, and the CTL induction was evaluated.

Experiment [2] has as its system CTL (IFNγ-secreting cells/total CD8 positive cells). Briefly: Evaluation of CTL induction rate, ICS method, after immunization of mice. Type of experiment: in vivo, C57BL/6N mice. Particulars: antigen peptide (80 μg); MPL content 0.227 or equivalent; DLPC, deoxycholic acid (160 nmol); subcutaneous once; FIGS. 3 and 4. Here is the method: Administration (100 μL/head) was performed by subcutaneous injection at one position on the back under anesthesia. […] For evaluation of cell-mediated immunity, administration was performed once and the assay was performed seven days after administration. For evaluation of humoral immunity, administration was performed twice. The second administration was performed 14 days after the first administration, and assay was performed seven days after the second administration.
The mice were sacrificed on the seventh day after the last administration and had its spleen harvested. The spleen was given RPMI medium (3.0 mL) containing 10% serum and then treated by the BD Falcon cell strainer. Thus there was obtained a suspension of cells. […] The cells were dispersed into RPMI medium containing 10% serum. The number of cells was counted. Thus there was obtained a dispersion of spleen cells.
For restimulation of the antigen, 10% serum-containing RPMI medium (100 μL) containing OVA peptide (40 μg/mL) was added, followed by incubation for three hours. Then, BD GolgiPlug was added such that its concentration was 0.2 μL/100 μL. Cell culture was performed overnight. In the case where the restimulation was not given, a 10% serum-containing RPMI medium not containing OVA peptide was used.
After washing, the cells were stained with Anti-CD8aPE (at 4° C. for 30 minutes), followed by washing again. Then the cells were permeabilized with Cytofix/Cytoperm. After washing, the cells were stained with Anti-IFNγFITC (at 4° C. for 30 minutes). […] CTL induction rate was calculated in terms of the ratio between the IFNγ secreting cells and the total CD8 positive cells.
It is known that MPL activates innate immune system and functions as an adjuvant even when used alone. It is also known that MPL induces cell-mediated immunity. Thus, a comparison was made as to the induction of cell-mediated immunity between MPL used alone and MPL used in combination with a pH-sensitive carrier in the form of the adjuvant composition. Each of the MPL and the adjuvant composition is administered together with an antigen. […] The above-mentioned solution or dispersion was subcutaneously administered once to the back of C57BL/6N mice, and the CTL induction rate was obtained according to the ICS method. The CTL induction rate is expressed in terms of the ratio of the IFNγ-secreting cells to the total CD8 positive cells in a specific area which is hardly affected by dead cells (IFNγ-secreting cells/total CD8 positive cells).

Experiment [3] has as its system CD80. Briefly: Evaluation of stimulus to activate innate immune system: expression of CD80 in cultured mice spleen cells (flow cytometry). Particulars: solution (5 μL) of sample added alone: peptide, OVA 800 μg/mL, DLPC 1000 nmol/mL, deoxycholic acid 1600 nmol/mL; FIG. 8(B). On the technique in general: A flow cytometer gives signals particle by particle.
Protocol: The evaluation of stimulus to activate innate immune system was performed as follows.
A spleen was harvested from C57BL/6N mice. The harvested spleen was injected with 500 μL of collagenase solution, 2 mg/mL (prepared with RPMI medium) followed by incubation at 37° C. for 30 minutes. The spleen was made into cell suspension by treatment with BD Falcon cell strainer. The cells underwent hemolysis with RBC lysis buffer, followed by washing with RPMI medium. The cells were dispersed into RPMI medium, and the number of cells was counted. The cells were used for the subsequent procedure.
The cells were inoculated into a 96-well dish such that 1.0×10^6 cells/100 μL. The cell dispersion was given 100 μL of RPMI medium containing a dispersion of different kind, followed by incubation overnight. These procedures were performed by using serum-free RPMI medium.
The cells were recovered and washed with BD stain buffer. Then, the cells underwent incubation together with Anti-CD11cFITC, 0.25 μg/100 μL (4° C. for 30 minutes), so that the cells were stained. After washing, the cells underwent again incubation with Anti-CD80PE, Anti-CD86PE, or Anti-CD40PE, 0.25 μg/100 μL (4° C. for 30 minutes), so that the cells were stained. After washing at least more than three times, the cells were evaluated by using the flow cytometer (Cytomics FC500, Software: CXP software ver. 2).

With SIINFEKL [peptide alone], the “number of IFNγ spots compared with untreated sample” value in experiment [1] is “equivalent number of spots as the untreated sample”. In addition, the CTL induction rate in experiment [2] is on record as 0.14%. Besides, the “fluorescence intensity of CD80PE compared with PBS” value in experiment [3] is “remained unchanged from that in the case where PBS was added”.
